In patent US9133158B2, “Bicyclic dihydroisoquinoline-1-one derivatives” (Hoffmann-La Roche Inc., priority 2011, dated 2015):

Legend:
[1] = molecular target: T1, human CYP11B1 (Homo sapiens, UniProt P15538); test: G-402 cellular enzyme assay, human CYP11B1 (cortisol release, HTRF); format: cell-based; settings: G-402 cells, 1 μM Deoxycortisol
T1 construct: expressed in transfected cells
T1 sequence (P15538 25-503): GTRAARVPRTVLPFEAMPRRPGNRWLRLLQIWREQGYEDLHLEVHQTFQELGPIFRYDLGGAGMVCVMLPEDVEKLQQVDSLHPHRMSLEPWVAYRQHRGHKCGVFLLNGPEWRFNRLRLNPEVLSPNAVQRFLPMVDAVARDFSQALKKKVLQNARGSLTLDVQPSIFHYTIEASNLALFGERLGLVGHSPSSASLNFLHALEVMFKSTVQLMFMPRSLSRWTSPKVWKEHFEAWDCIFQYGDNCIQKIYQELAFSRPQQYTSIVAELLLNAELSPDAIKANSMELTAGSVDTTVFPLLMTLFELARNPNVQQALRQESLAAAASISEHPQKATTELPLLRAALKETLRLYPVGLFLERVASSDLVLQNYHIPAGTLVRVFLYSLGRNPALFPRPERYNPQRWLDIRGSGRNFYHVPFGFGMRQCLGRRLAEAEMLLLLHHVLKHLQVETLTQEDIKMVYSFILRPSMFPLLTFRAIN
In short: (§1)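 G-402 cells stably expressing human CYP11B1 or CYP11B2, in DMEM/F12 with 2.5% charcoal-treated FCS, were incubated 16 h with test compound and substrate (1 μM 11-deoxycortisol for CYP11B1; 1 μM deoxycorticosterone for CYP11B2). Cortisol or aldosterone in supernatant was quantified by HTRF; EC50 from 4-parameter MMF fit.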

[2] = molecular target: T2, human CYP11B2 (Homo sapiens, UniProt P19099); test: G-402 cellular enzyme assay, human CYP11B2 (aldosterone release, HTRF); format: cell-based; settings: G-402 cells, 1 μM Deoxycorticosterone
T2 construct: expressed in transfected cells
T2 sequence (P19099 25-503): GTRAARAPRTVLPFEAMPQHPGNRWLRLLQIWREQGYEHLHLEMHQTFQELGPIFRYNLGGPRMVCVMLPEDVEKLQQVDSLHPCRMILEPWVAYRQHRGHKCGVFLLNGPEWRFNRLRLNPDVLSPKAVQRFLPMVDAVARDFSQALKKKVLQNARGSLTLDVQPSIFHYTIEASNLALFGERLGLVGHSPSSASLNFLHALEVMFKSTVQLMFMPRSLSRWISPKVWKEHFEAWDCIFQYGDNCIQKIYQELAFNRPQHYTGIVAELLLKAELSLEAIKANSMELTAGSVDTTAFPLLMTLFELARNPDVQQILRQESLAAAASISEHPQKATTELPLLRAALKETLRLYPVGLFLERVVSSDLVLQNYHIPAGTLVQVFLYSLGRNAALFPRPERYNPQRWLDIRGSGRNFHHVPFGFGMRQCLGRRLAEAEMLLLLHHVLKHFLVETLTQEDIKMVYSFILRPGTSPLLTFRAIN
In short: as §1

SMILES | EC50 [1] [µM] | EC50 [2] [nM]
O=C1c2ccc(Cl)cc2CCN1c1cncc(-c2cccc(C(F)(F)F)c2)c1 [Example 236, 6-Chloro-2-[5-(3-trifluoromethyl-phenyl)-pyridin-3-yl]-3,4-dihydro-2H-isoquinolin-1-one] | 4.39 | 133
O=C1c2ccc(Cl)cc2CCN1c1cncc(-c2cccc(OC(F)(F)F)c2)c1 [Example 237, 6-Chloro-2-[5-(3-trifluoromethoxy-phenyl)-pyridin-3-yl]-3,4-dihydro-2H-isoquinolin-1-one] | 3.61 | 204
Cn1nccc1-c1cncc(N2CCc3cc(Cl)ccc3C2=O)c1 [Example 238, 6-Chloro-2-[5-(2-methyl-2H-pyrazol-3-yl)-pyridin-3-yl]-3,4-dihydro-2H-isoquinolin-1-one] | 5.99 | 104
Cn1cc(-c2cncc(N3CCc4cc(Cl)ccc4C3=O)c2)cn1 [Example 239, 6-Chloro-2-[5-(1-methyl-1H-pyrazol-4-yl)-pyridin-3-yl]-3,4-dihydro-2H-isoquinolin-1-one] | 0.09 | 10.5
O=C1c2ccc(Cl)cc2CCN1c1cncc(-c2ccc(Cl)c(F)c2)c1 [Example 240, 6-Chloro-2-[5-(4-chloro-3-fluoro-phenyl)-pyridin-3-yl]-3,4-dihydro-2H-isoquinolin-1-one] | 3.27 | 115
O=C1c2ccc(Cl)cc2CCN1c1cncc(-c2ccccc2C(F)(F)F)c1 [Example 242, 6-Chloro-2-[5-(2-trifluoromethyl-phenyl)-pyridin-3-yl]-3,4-dihydro-2H-isoquinolin-1-one] | 0.206 | 25.6
O=C1c2ccc(Cl)cc2CCN1c1cncc(-c2cnoc2)c1 [Example 243, 6-Chloro-2-(5-isoxazol-4-yl-pyridin-3-yl)-3,4-dihydro-2H-isoquinolin-1-one] | 3.34 | 268
Cn1ccnc1-c1cncc(N2CCc3cc(Cl)ccc3C2=O)c1 [Example 244, 6-Chloro-2-[5-(1-methyl-1H-imidazol-2-yl)-pyridin-3-yl]-3,4-dihydro-2H-isoquinolin-1-one] | 4.69 | 1860
Cc1cnn(C)c1-c1cncc(N2CCc3cc(Cl)ccc3C2=O)c1 [Example 245, 6-Chloro-2-[5-(2,4-dimethyl-2H-pyrazol-3-yl)-pyridin-3-yl]-3,4-dihydro-2H-isoquinolin 1-one] | 0.0257 | 1.1
Cn1ncc(C#N)c1-c1cncc(N2CCc3cc(Cl)ccc3C2=O)c1 [Example 246, 5-[5-(6-Chloro-1-oxo-3,4-dihydro-1H-isoquinolin-2-yl)-pyridin-3-yl]-1-methyl-1H-pyrazole-4-carbonitrile] | 0.546 | 102
CC(C)C(=O)Nc1cncc(N2CCc3cc(Cl)ccc3C2=O)c1 [Example 247, N-[5-(6-Chloro-1-oxo-3,4-dihydro-1H-isoquinolin-2-yl)-pyridin-3-yl]-isobutyramide] | 7.47 | 4580
O=C(Nc1cncc(N2CCc3cc(Cl)ccc3C2=O)c1)c1ccc(F)cc1 [Example 249, N-[5-(6-Chloro-1-oxo-3,4-dihydro-1H-isoquinolin-2-yl)-pyridin-3-yl]-4-fluoro-benzamide] | 7.6 | 3220
O=C(Nc1cncc(N2CCc3cc(Cl)ccc3C2=O)c1)NC1CCCCC1 [Example 250, 1-[5-(6-Chloro-1-oxo-3,4-dihydro-1H-isoquinolin-2-yl)-pyridin-3-yl]-3-cyclohexyl-urea] | 12.3 | 4440
O=C(Nc1cncc(N2CCc3cc(Cl)ccc3C2=O)c1)Nc1cccc(C(F)(F)F)c1 [Example 251, 1-[5-(6-Chloro-1-oxo-3,4-dihydro-1H-isoquinolin-2-yl)-pyridin-3-yl]-3-(3-trifluoromethyl-phenyl)-urea] | 15.8 | 5880
O=C1c2ccc(Cl)cc2CCN1c1cncc(O)c1 [Example 252, 6-Chloro-2-(5-hydroxy-pyridin-3-yl)-3,4-dihydro-2H-isoquinolin-1-one] | 9.76 | 272
NC(=O)COc1cncc(N2CCc3cc(Cl)ccc3C2=O)c1 [Example 253, 2-[5-(6-Chloro-1-oxo-3,4-dihydro-1H-isoquinolin-2-yl)-pyridin-3-yloxy]-acetamide] | 10 | 581

SMILES | EC50 [1] [µM] | EC50 [2] [nM]
CNC(=O)COc1cncc(N2CCc3cc(Cl)ccc3C2=O)c1 [Example 254, 2-[5-(6-Chloro-1-oxo-3,4-dihydro-1H-isoquinolin-2-yl)-pyridin-3-yloxy]-N-methyl-acetamide] | 32.5 | 2130
COC(=O)COc1cncc(N2CCc3cc(Cl)ccc3C2=O)c1 [Example 255, [5-(6-Chloro-1-oxo-3,4-dihydro-1H-isoquinolin-2-yl)-pyridin-3-yloxy]-acetic acid methyl ester] | 7.61 | 2800
O=C1c2ccc(Cl)cc2CCN1c1cncc(CNc2ccccc2)c1 [Example 257, 6-Chloro-2-(5-phenylaminomethyl-pyridin-3-yl)-3,4-dihydro-2H-isoquinolin-1-one] | 0.0954 | 11.3
O=C1c2ccc(Cl)cc2CCN1c1cncc(CNc2ccc(F)cc2)c1 [Example 258, 6-Chloro-2-{5-[(4-fluoro-phenylamino)-methyl]-pyridin-3-yl}-3,4-dihydro-2H-isoquinolin-1-one] | 0.0418 | 3.7
O=C1c2ccc(Cl)cc2CCN1c1cncc(CNc2cccc(F)c2)c1 [Example 259, 6-Chloro-2-{5-[(3-fluoro-phenylamino)-methyl]-pyridin-3-yl}-3,4-dihydro-2H-isoquinolin-1-one] | 0.0738 | 12.2
O=C1c2ccc(Cl)cc2CCN1c1cncc(CNc2ccc(Cl)cc2)c1 [Example 260, 6-Chloro-2-{5-[(4-chloro-phenylamino)-methyl]-pyridin-3-yl}-3,4-dihydro-2H-isoquinolin-1-one] | 0.345 | 471
O=C1c2ccc(Cl)cc2CCN1c1cncc(CNc2cccc(Cl)c2)c1 [Example 261, 6-Chloro-2-{5-[(3-chloro-phenylamino)-methyl]-pyridin-3-yl}-3,4-dihydro-2H-isoquinolin-1-one] | 0.105 | 26.7
O=C1c2ccc(Cl)cc2CCN1c1cncc(CNc2cc[nH]n2)c1 [Example 262, 6-Chloro-2-{5-[(1H-pyrazol-3-ylamino)-methyl]-pyridin-3-yl}-3,4-dihydro-2H-isoquinolin-1-one] | 0.3 | 14.1
O=C(Cc1cncc(N2CCc3cc(Cl)ccc3C2=O)c1)N1CCOCC1 [Example 263, 6-Chloro-2-[5-(2-morpholin-4-yl-2-oxo-ethyl)-pyridin-3-yl]-3,4-dihydro-2H-isoquinolin-1-one] | 4.93 | 491
O=C(Cc1cncc(N2CCc3cc(Cl)ccc3C2=O)c1)NCCO [Example 264, 2-[5-(6-Chloro-1-oxo-3,4-dihydro-4H-isoquinolin-2-yl)-pyridin-3-yl]-N-(2-hydroxy-ethyl)-acetamide] | 4.19 | 843
CNC(C)c1cncc(N2CCc3cc(Cl)ccc3C2=O)c1 (centres unmarked) [Example 265, 6-Chloro-2-[5-(1-methylamino-ethyl)-pyridin-3-yl]-3,4-dihydro-2H-isoquinolin-1-one] | 5.02 | 437
CC(c1cncc(N2CCc3cc(Cl)ccc3C2=O)c1)N(C)C (centres unmarked) [Example 266, 6-Chloro-2-[5-(1-dimethylamino-ethyl)-pyridin-3-yl]-3,4-dihydro-2H-isoquinolin-1-one] | 0.276 | 44.4
Cn1ccnc1C(=O)c1cncc(N2CCc3cc(Cl)ccc3C2=O)c1 [Example 267, 6-Chloro-2-[5-(1-methyl-4H-imidazole-2-carbonyl)-pyridin-3-yl]-3,4-dihydro-2H-isoquinolin-1-one] | 11.3 | 1610
Cn1cnnc1Cc1cncc(N2CCc3cc(Cl)ccc3C2=O)c1 [Example 268, 6-Chloro-2-[5-(4-methyl-4H-[1,2,4]-triazol-3-ylmethyl)-pyridin-3-yl]-3,4-dihydro-2H-isoquinolin-1-one] | 14.2 | 1650
CC(c1cncc(N2CCc3cc(Cl)ccc3C2=O)c1)n1nccn1 (centres unmarked) [Example 269, 6-Chloro-2-[5-(1-[1,2,3]triazol-2-yl-ethyl)-pyridin-3-yl]-3,4-dihydro-2H-isoquinolin-1-one] | 0.425 | 46.2
